≈ marks a conversion by molar mass, not a printed value.
Each molecule was assayed on Staphylococcus epidermidis (assay: In vitro antibacterial activity against oxacilline resistant strain Staphylococcus epidermidis 012GO39).
Format: functional

Row | SMILES | MIC
1 | CC(=O)NC[C@@H]1CC(=O)N(c2ccc(C(C)=O)cc2)C1 | > 40 µg/mL
2 | CC(=O)NC[C@@H]1CCN(c2ccc(C(C)=O)cc2)C1 | > 40 µg/mL
3 | CC(=O)NC[C@H]1C=C(c2ccc(C(C)=O)cc2)C(=O)O1 | 2.5 µg/mL (≈ 9.15 µM)
4 | CC(=O)NC[C@H]1CN(c2ccc(C(C)=O)cc2)C(=O)O1 [DUP-721] | 2.5 µg/mL (≈ 9.05 µM)

Each molecule was assayed on Staphylococcus aureus (assay: In vitro antibacterial activity against sensitive strain Staphylococcus aureus SG 511).
Format: functional

Row | SMILES | MIC
5 | CC(=O)NC[C@@H]1CC(=O)N(c2ccc(C(C)=O)cc2)C1 | > 40 µg/mL
6 | CC(=O)NC[C@@H]1CCN(c2ccc(C(C)=O)cc2)C1 | > 40 µg/mL
7 | CC(=O)NC[C@H]1C=C(c2ccc(C(C)=O)cc2)C(=O)O1 | 1.2 µg/mL (≈ 4.39 µM)
8 | CC(=O)NC[C@H]1CN(c2ccc(C(C)=O)cc2)C(=O)O1 [DUP-721] | 1.2 µg/mL (≈ 4.34 µM)

What follows are molecules tested on Staphylococcus aureus (assay: In vitro antibacterial activity against oxacilline resistant strain Staphylococcus aureus O11CB20).
Format: functional

Row | SMILES | MIC
9 | CC(=O)NC[C@H]1C=C(c2ccc(C(C)=O)cc2)C(=O)O1 | 1.2 µg/mL (≈ 4.39 µM)
10 | CC(=O)NC[C@H]1CN(c2ccc(C(C)=O)cc2)C(=O)O1 [DUP-721] | 1.2 µg/mL (≈ 4.34 µM)

What follows are molecules tested on Escherichia coli (assay: In vitro antibacterial activity against Escherichia coli UC 1894).
Format: functional

Row | SMILES | MIC
11 | CC(=O)NC[C@@H]1CC(=O)N(c2ccc(C(C)=O)cc2)C1 | > 40 µg/mL
12 | CC(=O)NC[C@@H]1CCN(c2ccc(C(C)=O)cc2)C1 | > 40 µg/mL
13 | CC(=O)NC[C@H]1C=C(c2ccc(C(C)=O)cc2)C(=O)O1 | > 40 µg/mL
14 | CC(=O)NC[C@H]1CN(c2ccc(C(C)=O)cc2)C(=O)O1 [DUP-721] | > 40 µg/mL

Each molecule was assayed on Enterococcus faecium (assay: In vitro antibacterial activity against sensitive strain Streptococcus faecium M78L).
Format: functional

Row | SMILES | MIC
15 | CC(=O)NC[C@@H]1CC(=O)N(c2ccc(C(C)=O)cc2)C1 | > 40 µg/mL
16 | CC(=O)NC[C@@H]1CCN(c2ccc(C(C)=O)cc2)C1 | > 40 µg/mL
17 | CC(=O)NC[C@H]1C=C(c2ccc(C(C)=O)cc2)C(=O)O1 | 5 µg/mL (≈ 18.3 µM)
18 | CC(=O)NC[C@H]1CN(c2ccc(C(C)=O)cc2)C(=O)O1 [DUP-721] | 2.5 µg/mL (≈ 9.05 µM)

The molecules below were run on Enterococcus faecium (assay: In vitro antibacterial activity against vancomycin resistant strain Streptococcus faecium 02D3IP1).
Format: functional

Row | SMILES | MIC
19 | CC(=O)NC[C@@H]1CC(=O)N(c2ccc(C(C)=O)cc2)C1 | > 40 µg/mL
20 | CC(=O)NC[C@@H]1CCN(c2ccc(C(C)=O)cc2)C1 | > 40 µg/mL
21 | CC(=O)NC[C@H]1C=C(c2ccc(C(C)=O)cc2)C(=O)O1 | 2.5 µg/mL (≈ 9.15 µM)
22 | CC(=O)NC[C@H]1CN(c2ccc(C(C)=O)cc2)C(=O)O1 [DUP-721] | < 1.2 µg/mL

What follows are molecules tested on Streptococcus pyogenes (assay: In vitro antibacterial activity against sensitive strain Streptococcus pyogenes 77A).
Format: functional

Row | SMILES | MIC
23 | CC(=O)NC[C@@H]1CC(=O)N(c2ccc(C(C)=O)cc2)C1 | > 40 µg/mL
24 | CC(=O)NC[C@@H]1CCN(c2ccc(C(C)=O)cc2)C1 | > 40 µg/mL
25 | CC(=O)NC[C@H]1C=C(c2ccc(C(C)=O)cc2)C(=O)O1 | 2.5 µg/mL (≈ 9.15 µM)
26 | CC(=O)NC[C@H]1CN(c2ccc(C(C)=O)cc2)C(=O)O1 [DUP-721] | 0.6 µg/mL (≈ 2.17 µM)

These molecules were tested on Enterococcus faecalis (assay: In vitro antibacterial activity against vancomycin resistant strain Streptococcus faecalis 02D2DU17).
Format: functional

Row | SMILES | MIC
27 | CC(=O)NC[C@@H]1CC(=O)N(c2ccc(C(C)=O)cc2)C1 | > 40 µg/mL
28 | CC(=O)NC[C@@H]1CCN(c2ccc(C(C)=O)cc2)C1 | > 40 µg/mL
29 | CC(=O)NC[C@H]1C=C(c2ccc(C(C)=O)cc2)C(=O)O1 | 2.5 µg/mL (≈ 9.15 µM)
30 | CC(=O)NC[C@H]1CN(c2ccc(C(C)=O)cc2)C(=O)O1 [DUP-721] | 2.5 µg/mL (≈ 9.05 µM)

Reference: ChEMBL document CHEMBL1127945, “5-Aryl-, butenolide, a new class of antibacterial derived from the N-aryl oxazolidinone DUP 721” (1994)
